Measured values: US20140088187A1, “ANDROGEN RECEPTOR INHIBITORS AND METHODS OF USE THEREOF” (BETH ISRAEL DEACONESS MEDICAL CENTER, priority 2010, published 2014)
Where a chain is given by its changes, count along the chain named. “Also recorded” adds a separate entry of the source.

Columns and labels:
wildtype AR = target: T1, wildtype AR (Homo sapiens, UniProt P10275); assay: AR-responsive firefly luciferase reporter assay in COS7 cells transfected with AR (DHT-stimulated AR activity); format: cell-based; settings: for inhibition at 12.5 µM: COS-7, 24 h, read-out: % Angtag (12.5 μM vs. 1 nM DHT)
T1 construct: The AR WT construct expresses full-length human AR under cmv promoter control; expressed in transfected cells; host or cells: COS7
T1 sequence (P10275 1-920): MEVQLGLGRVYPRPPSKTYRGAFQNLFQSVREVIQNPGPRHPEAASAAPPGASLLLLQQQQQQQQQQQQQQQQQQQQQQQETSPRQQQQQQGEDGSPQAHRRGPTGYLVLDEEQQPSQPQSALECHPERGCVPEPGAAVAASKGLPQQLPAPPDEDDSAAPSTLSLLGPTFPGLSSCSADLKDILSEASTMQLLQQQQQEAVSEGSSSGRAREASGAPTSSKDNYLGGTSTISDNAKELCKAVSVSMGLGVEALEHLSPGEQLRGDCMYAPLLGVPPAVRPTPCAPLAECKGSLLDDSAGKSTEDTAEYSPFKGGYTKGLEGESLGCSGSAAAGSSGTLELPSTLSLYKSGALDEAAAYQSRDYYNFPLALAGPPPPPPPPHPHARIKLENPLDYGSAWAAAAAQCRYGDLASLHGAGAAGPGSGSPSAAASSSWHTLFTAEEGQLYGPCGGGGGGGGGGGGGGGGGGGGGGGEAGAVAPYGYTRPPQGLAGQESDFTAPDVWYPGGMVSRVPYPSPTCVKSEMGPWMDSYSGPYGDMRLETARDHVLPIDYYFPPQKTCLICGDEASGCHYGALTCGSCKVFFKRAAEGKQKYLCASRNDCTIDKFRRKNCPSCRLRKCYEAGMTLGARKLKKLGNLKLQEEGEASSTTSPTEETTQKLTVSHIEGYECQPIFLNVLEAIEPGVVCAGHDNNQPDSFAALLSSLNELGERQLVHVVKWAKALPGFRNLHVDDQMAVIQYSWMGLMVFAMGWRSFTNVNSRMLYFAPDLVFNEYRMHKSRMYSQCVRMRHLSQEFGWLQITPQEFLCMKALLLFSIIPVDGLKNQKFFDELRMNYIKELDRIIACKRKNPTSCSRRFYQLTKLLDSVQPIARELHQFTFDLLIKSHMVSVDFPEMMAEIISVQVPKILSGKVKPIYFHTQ
Text: FIG. 13. Antagonist activity of generation 4 compounds at 25 micromolar. […] Reporter firefly luciferase is corrected for control Renilla activity.
FIG. 14. Antagonist activity of generation 4 compounds at 1-10 micromolar. […] Reporter firefly luciferase is corrected for control Renilla activity. […]
(§1) The AR-responsive firefly luciferase reporter consists of 4 tandem repeats of the consensus steroid response element cloned upstream of the pGL3-Basic Luciferase vector (Promega). The AR WT construct expresses full-length human AR under cmv promoter control.
(§2) Luciferase activity was determined using the Dual-Luciferase Reporter Assay System (Promega E1910).

AR in VCaP cells [1] = target: T2, AR in VCaP cells (Homo sapiens, UniProt P10275); assay: Nuclear AR, total AR protein and PSA expression in VCaP cells in steroid depleted medium; format: cell-based
T2 construct: endogenous in cells; host or cells: VCaP
T2 sequence (P10275 1-920): T1 sequence (P10275 1-920)
Text: VCaP cells, derived from a CRPC vertebral metastasis, express substantial levels of AR and AR regulated genes such as PSA even when cultured in steroid depleted medium. […] In additional studies focused on chemotype A compounds, we used immunofluorescence to assess AR nuclear localization. […] In contrast, and consistent with the biochemical fractionation studies noted above, basal nuclear AR was decreased by A61.
We used the NE-PER Nuclear and Cytoplasmic Extraction Reagents (Pierce 78833).

AR in C4-2 cells = target: T3, AR in C4-2 cells (Homo sapiens, UniProt P10275, T878A)
T3 sequence (P10275 1-920 T878A): T1 sequence (P10275 1-920) with T878A

AR in VCaP cells [2] = target: T2, AR in VCaP cells; assay: Immunofluorescence of AR nuclear localization in VCaP cells (CSS medium); format: cell-based
Text: VCaP cells, derived from a CRPC vertebral metastasis, express substantial levels of AR and AR regulated genes such as PSA even when cultured in steroid depleted medium. […] In additional studies focused on chemotype A compounds, we used immunofluorescence to assess AR nuclear localization.

T877A mutant AR = target: T4, T877A mutant AR (Homo sapiens, UniProt P10275, T878A); assay: T877A mutant AR luciferase reporter assay; format: cell-based; settings: HF 100 nM; chemotype A compounds 10 μM
T4 sequence (P10275 1-920 T878A): T1 sequence (P10275 1-920) with T878A
Description: FIG. 6. […] (f) W741C mutant AR response to Bic (10 μM), HF (100 nM), and chemotype A compounds (10 μM). Error bars represent S.E.M.
To further validate the predicted positioning of the compounds in the steroid binding pocket, we also examined the effects of established mutations within the LBD.
as §1, §2

VP16-AR = VP16-AR (Homo sapiens, UniProt P10275)
[3] = steroid depleted medium, data not shown

Compound: O=C(CBr)Nc1ccc(S(=O)(=O)NCc2ccc3c(c2)OCO3)cc1 [Compound 13, N-(4-(N-(Benzo[d][1,3]dioxol-5-ylmethyl)sulfamoyl)phenyl) bromoacetamide]
- inhibition at 12.5 µM (wildtype AR): 70%

Compound: O=C(CCl)Nc1ccc(S(=O)(=O)NCc2ccc3c(c2)OCO3)cc1 [Compound 14, N-(4-(N-(Benzo[d][1,3]dioxol-5-ylmethyl)sulfamoyl)phenyl)chloroacetamide]
- inhibition at 12.5 µM (wildtype AR): 90%

Compound: CC(=O)N(C(C)=O)c1ccc(S(=O)(=O)NCc2ccc3c(c2)OCO3)cc1 [Compound 15, N-acetyl-N-(4-(N-(Benzo[d][1,3]dioxol-5-ylmethyl)sulfamoyl)phenyl) acetamide]
- % Angtag (12.5 μM vs. 1 nM DHT) (wildtype AR; 12.5 μM compound vs. 1 nM DHT): 85%

Compound: O=C(CBr)Nc1cccc(S(=O)(=O)NCc2ccc3c(c2)OCO3)c1 [Compound 17, N-(3-(N-(Benzo[d][1,3]dioxol-5-ylmethyl)sulfamoyl)phenyl)-2-bromoacetamide]
- inhibition at 12.5 µM (wildtype AR): 20%

Compound: O=C(Nc1ccc(S(=O)(=O)NCc2ccc3c(c2)OCO3)cc1)C(F)(F)F [Compound 20, N-(4-(N-(Benzo[d][1,3]-dioxol-5-ylmethyl)sulfamoyl)phenyl)-2,2,2-trifluoroacetamide]
- inhibition at 12.5 µM (wildtype AR): 0%

Compound: CS(=O)(=O)Nc1ccc(S(=O)(=O)NCc2ccc3c(c2)OCO3)cc1 [Compound 21, N-(benzo[d][1,3]dioxol-5-ylmethyl)-4-(methylsulfonamido)benzenesulfonamide]
- inhibition at 12.5 µM (wildtype AR): 70%

Compound: CC(C)(C)CC(=O)Nc1ccc(S(=O)(=O)NCc2ccc3c(c2)OCO3)cc1 [Compound 22, N-(4-(N-(Benzo[d][1,3]dioxol-5-ylmethyl)sulfamoyl)phenyl)-3,3-dimethylbutanamide]
- inhibition at 12.5 µM (wildtype AR): 70%

Compound: O=S(=O)(NCc1ccc2c(c1)OCO2)c1ccc(C(F)(F)F)c(N=C=S)c1 [Compound 23, N-(benzo[d][1,3]dioxol-5-ylmethyl)-3-isothiocyanato-4-(trifluoromethyl)benzenesulfonamide]
- inhibition at 12.5 µM (wildtype AR): 75%

Compound: CC(=O)c1ccc(S(=O)(=O)NCc2ccc3c(c2)OCO3)cc1OC(F)(F)F [Compound 25, 4-acetyl-N-(benzo[d][1,3]dioxol-5-ylmethyl)-3-(trifluoromethoxy)benzenesulfonamide]
- inhibition at 12.5 µM (wildtype AR): 50%

Compound: CCC(=O)c1cc(S(=O)(=O)NCc2ccc3c(c2)OCO3)ccc1OC(F)(F)F [Compound 29, N-(benzo[d][1,3]dioxol-5-ylmethyl)-3-propionyl-4-(trifluoromethoxy)benzenesulfonamide]
- inhibition at 12.5 µM (wildtype AR): 60%

Compound: NC(=O)c1cc(S(=O)(=O)NCc2ccc3c(c2)OCO3)ccc1OC(F)(F)F [Compound 30, 5-(N-(benzo[d][1,3]dioxol-5-ylmethyl)sulfamoyl)-2-(trifluoromethoxy)benzamide]
- inhibition at 12.5 µM (wildtype AR): 20%

Compound: CS(=O)(=O)c1cc(S(=O)(=O)NCc2ccc3c(c2)OCO3)ccc1OC(F)(F)F [Compound 31, N-(benzo[d][1,3]dioxol-5-ylmethyl)-3-(methylsulfonyl)-4-(trifluoromethoxy)benzenesulfonamide]
- inhibition at 12.5 µM (wildtype AR): 85%

Compound: CC(=O)c1ccc(S(=O)(=O)NCc2ccc3c(c2)OCO3)cc1C(F)(F)F [Compound 32, 4-acetyl-N-(benzo[d][1,3]dioxol-5-ylmethyl)-3-(trifluoromethyl)benzenesulfonamide]
- inhibition at 12.5 µM (wildtype AR): 50%

Compound: CCC(=O)c1ccc(S(=O)(=O)NCc2ccc3c(c2)OCO3)cc1C(F)(F)F [Compound 33, N-(benzo[d][1,3]dioxol-5-ylmethyl)-4-propionyl-3-(trifluoromethyl)benzenesulfonamide]
- inhibition at 12.5 µM (wildtype AR): 20%

Compound: O=S(=O)(NCc1ccc2c(c1)OCO2)c1ccc(F)cc1F [Compound A61, N-(1,3-benzodioxol-5-ylmethyl)-2,4-difluorobenzenesulfonamide]
- basal level PSA expression (AR in VCaP cells [1]; 10 μM, steroid depleted medium): further decreasing basal level PSA expression
- nuclear AR (AR in VCaP cells [1]; 10 μM, steroid depleted medium): significantly decreased nuclear AR
- DHT stimulated PSA expression (AR in VCaP cells [1]; not shown): blocking DHT stimulated PSA expression
- basal PSA (AR in C4-2 cells; 24 hours (FIG. 10a)): decrease in basal PSA
- total AR protein levels (AR in C4-2 cells; 24 hours (FIG. 10a)): noteworthy decrease
- PSA expression (AR in C4-2 cells; [3]): reduced
- nuclear AR levels (AR in C4-2 cells; [3]): reduced nuclear AR levels
- nuclear AR levels by immunofluorescence (AR in VCaP cells [2]): decreased
- potency in antagonizing AR activity in luciferase reporter assays (wildtype AR; relative to initial chemotype A compounds, data not shown): increased potency; also recorded: relatively higher potency

Compound: CC(C)(O)C(=O)Nc1ccc([N+](=O)[O-])c(C(F)(F)F)c1 [hydroxyflutamide]
- agonist activity on T877A mutant AR (T877A mutant AR): strong agonist
- VP16-AR reporter (transcriptional) activity (VP16-AR): strong reporter activity
